{"source": "ChEMBL document CHEMBL3352679", "about": "“Structure and evaluation of antibacterial and antitubercular properties of new basic and heterocyclic 3-formylrifamycin SV derivatives obtained via 'click chemistry' approach” (Eur J Med Chem, 2014)", "data": [{"test_system": "Mycobacterium tuberculosis variant bovis", "test": "Antituberculosis activity against Mycobacterium bovis after 14 days by serial microdilution method", "format": "functional", "details": "336 h", "units": {"MIC99": "µg/mL"}, "values": [{"smiles": "CO[C@H]1/C=C/O[C@@]2(C)Oc3c(C)c(O)c4c(O)c(c(C=O)c(O)c4c3C2=O)NC(=O)/C(C)=C\\C=C\\[C@H](C)[C@H](O)[C@@H](C)[C@@H](O)[C@@H](C)[C@H](OC(C)=O)[C@@H]1C", "MIC99": "> 1"}, {"smiles": "CO[C@H]1/C=C/O[C@@]2(C)Oc3c(C)c(O)c4c(O)c(c(CNCCN(C)C)c(O)c4c3C2=O)NC(=O)/C(C)=C\\C=C\\[C@H](C)[C@H](O)[C@@H](C)[C@@H](O)[C@@H](C)[C@H](OC(C)=O)[C@@H]1C", "MIC99": "> 1"}, {"smiles": "CO[C@H]1/C=C/O[C@@]2(C)Oc3c(C)c(O)c4c(O)c(c(CNCCN5CCCC5)c(O)c4c3C2=O)NC(=O)/C(C)=C\\C=C\\[C@H](C)[C@H](O)[C@@H](C)[C@@H](O)[C@@H](C)[C@H](OC(C)=O)[C@@H]1C", "MIC99": 1}, {"smiles": "CO[C@H]1/C=C/O[C@@]2(C)Oc3c(C)c(O)c4c(O)c(c(CNCCCN5CCCC5)c(O)c4c3C2=O)NC(=O)/C(C)=C\\C=C\\[C@H](C)[C@H](O)[C@@H](C)[C@@H](O)[C@@H](C)[C@H](OC(C)=O)[C@@H]1C", "MIC99": 1}, {"smiles": "CO[C@H]1/C=C/O[C@@]2(C)Oc3c(C)c(O)c4c(O)c(c(CNCCCn5ccnc5)c(O)c4c3C2=O)NC(=O)/C(C)=C\\C=C\\[C@H](C)[C@H](O)[C@@H](C)[C@@H](O)[C@@H](C)[C@H](OC(C)=O)[C@@H]1C", "MIC99": 1}, {"smiles": "CO[C@H]1/C=C/O[C@@]2(C)Oc3c(C)c(O)c4c(O)c(c(CNC5CCN(Cc6ccccc6)CC5)c(O)c4c3C2=O)NC(=O)/C(C)=C\\C=C\\[C@H](C)[C@H](O)[C@@H](C)[C@@H](O)[C@@H](C)[C@H](OC(C)=O)[C@@H]1C", "MIC99": 0.125}, {"smiles": "CO[C@H]1/C=C/O[C@@]2(C)Oc3c(C)c(O)c4c(O)c(c(CNCCCN5CCN(CCCNCc6c7c(O)c8c(O)c(C)c9c(c8c6O)C(=O)[C@@](C)(O/C=C/[C@H](OC)[C@@H](C)[C@@H](OC(C)=O)[C@H](C)[C@H](O)[C@H](C)[C@@H](O)[C@@H](C)/C=C/C=C(/C)C(=O)N7)O9)CC5)c(O)c4c3C2=O)NC(=O)/C(C)=C\\C=C\\[C@H](C)[C@H](O)[C@@H](C)[C@@H](O)[C@@H](C)[C@H](OC(C)=O)[C@@H]1C", "MIC99": "> 1"}, {"smiles": "CCCc1cn(CCNCc2c3c(O)c4c(O)c(C)c5c(c4c2O)C(=O)[C@@](C)(O/C=C/[C@H](OC)[C@@H](C)[C@@H](OC(C)=O)[C@H](C)[C@H](O)[C@H](C)[C@@H](O)[C@@H](C)/C=C/C=C(/C)C(=O)N3)O5)nn1", "MIC99": 1}, {"smiles": "CCCCCc1cn(CCCNCc2c3c(O)c4c(O)c(C)c5c(c4c2O)C(=O)[C@@](C)(O/C=C/[C@H](OC)[C@@H](C)[C@@H](OC(C)=O)[C@H](C)[C@H](O)[C@H](C)[C@@H](O)[C@@H](C)/C=C/C=C(/C)C(=O)N3)O5)nn1", "MIC99": 0.5}, {"smiles": "CO[C@H]1/C=C/O[C@@]2(C)Oc3c(C)c(O)c4c(O)c(c(CNCc5cn(CN6C(=O)c7ccccc7C6=O)nn5)c(O)c4c3C2=O)NC(=O)/C(C)=C\\C=C\\[C@H](C)[C@H](O)[C@@H](C)[C@@H](O)[C@@H](C)[C@H](OC(C)=O)[C@@H]1C", "MIC99": 0.25}, {"smiles": "CCCc1cn(CCN2Cc3c4c(O)c5c(O)c(C)c6c(c5c3O)C(=O)[C@@](C)(O/C=C/[C@H](OC)[C@@H](C)[C@@H](OC(C)=O)[C@H](C)[C@H](O)[C@H](C)[C@@H](O)[C@@H](C)/C=C/C=C(/C)C2=N4)O6)nn1", "MIC99": 0.5}, {"smiles": "CCCCCc1cn(CCCN2Cc3c4c(O)c5c(O)c(C)c6c(c5c3O)C(=O)[C@@](C)(O/C=C/[C@H](OC)[C@@H](C)[C@@H](OC(C)=O)[C@H](C)[C@H](O)[C@H](C)[C@@H](O)[C@@H](C)/C=C/C=C(/C)C2=N4)O6)nn1", "MIC99": 0.5}, {"smiles": "CO[C@H]1/C=C/O[C@@]2(C)Oc3c(C)c(O)c4c(O)c5c(c(O)c4c3C2=O)CN(Cc2cn(CN3C(=O)c4ccccc4C3=O)nn2)C(=N5)/C(C)=C\\C=C\\[C@H](C)[C@H](O)[C@@H](C)[C@@H](O)[C@@H](C)[C@H](OC(C)=O)[C@@H]1C", "MIC99": 0.5}, {"smiles": "CO[C@H]1/C=C\\O[C@@]2(C)Oc3c(C)c(O)c4c(O)c(c(CNC5CCN(Cc6ccccc6)CC5)c(O)c4c3C2=O)NC(=O)/C(C)=C\\C=C/[C@H](C)[C@H](O)[C@@H](C)[C@@H](O)[C@@H](C)[C@H](OC(C)=O)[C@@H]1C", "MIC99": 0.125}, {"smiles": "CO[C@H]1/C=C/O[C@@]2(C)Oc3c(C)c(O)c4c(O)c(c(/C=N/N5CCN(C)CC5)c(O)c4c3C2=O)NC(=O)/C(C)=C\\C=C\\[C@H](C)[C@H](O)[C@@H](C)[C@@H](O)[C@@H](C)[C@H](OC(C)=O)[C@@H]1C", "note": "[RIFAMPIN]", "MIC99": 0.25}]}]}
